# Values of other authors in US11771704B1, “Methods of using rho kinase inhibitors to treat alzheimer's disease” (priority 2020, dated 2023).
# What was measured:
# [1] = in vivo, 1-hydroxy metabolite; cited from earlier work
# animal model = conditions: in vivo; cited from earlier work
# [2] = biological target: p38 mitogen-activated protein kinase (Homo sapiens, UniProt Q16539); conditions: cited from earlier work
# streptozotocin rats = conditions: 5 and 10 mg/kg/day intraperitoneally (226 mg HED); cited from earlier work
# [3] = system: triple transgenic mouse model (APP Swedish, MAPT P301L, and PSEN1 M146V); conditions: 10 mg/kg/day intraperitoneally (57 mg HED); cited from earlier work
# APP/PS1 transgenic mice = conditions: 5 and 10 mg/kg/day intraperitoneally (70, 140 mg HED); cited from earlier work
# triple transgenic mice = conditions: 10 or 12 months of age, in water at 30 mg/kg and 100 mg/kg; cited from earlier work
# Chain of p38 mitogen-activated protein kinase (Q16539 whole entry): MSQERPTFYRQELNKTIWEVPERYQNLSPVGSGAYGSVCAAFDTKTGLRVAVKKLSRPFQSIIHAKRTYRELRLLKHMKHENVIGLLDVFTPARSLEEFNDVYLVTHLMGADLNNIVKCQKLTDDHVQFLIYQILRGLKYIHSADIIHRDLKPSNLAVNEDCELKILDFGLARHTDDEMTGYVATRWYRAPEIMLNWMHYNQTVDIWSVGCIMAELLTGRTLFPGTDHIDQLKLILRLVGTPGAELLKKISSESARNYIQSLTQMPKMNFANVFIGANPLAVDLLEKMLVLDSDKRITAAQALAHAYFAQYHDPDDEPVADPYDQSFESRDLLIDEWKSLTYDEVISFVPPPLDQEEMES
structure (smiles),measurement,setting,value
"O=S(=O)(c1cccc2c(O)nccc12)N1CCCNCC1 [M3, hydroxyfasudil]",half-life,[1],about 8 hours
O=c1ncn2nc(Sc3ccc(F)cc3F)ccc2c1-c1c(Cl)cccc1Cl [Neflamapimod],efficacy in an animal model,animal model,showed efficacy
same,primary endpoint of improving episodic memory,[2]; Phase 2,failed
same,tau in the cerebrospinal fluid,[2]; Phase 2,reducing
same,Aβ deposition,[2]; humans,no effect
"Cl.O=S(=O)(c1cccc2cnccc12)N1CCCNCC1 [fasudil, Hexahydro-1-(5-Isoquinolinesulfonyl)-1H-1,4-Diazepine Monohydrochloride Hemihydrate]",latency distance and quadrant time in the Morris water maze,streptozotocin rats,improved
same,β-amyloid plaques in vivo,[3],reduce
same,latency distance and quadrant time in the Morris water maze,APP/PS1 transgenic mice,improved
same,spatial memory,triple transgenic mice,did not observe improvements
